Structures can show the parent of a compound that is named as a salt.

A word on the EC50: it is the concentration needed to bring the measured effect to its halfway point.

The target in this test is T1, calcium receptor (Homo sapiens, UniProt P41180).
T1 construct: expressed in transfected cells; host or cells: HEK 293 4.0-7
T1 sequence (P41180 20-1078): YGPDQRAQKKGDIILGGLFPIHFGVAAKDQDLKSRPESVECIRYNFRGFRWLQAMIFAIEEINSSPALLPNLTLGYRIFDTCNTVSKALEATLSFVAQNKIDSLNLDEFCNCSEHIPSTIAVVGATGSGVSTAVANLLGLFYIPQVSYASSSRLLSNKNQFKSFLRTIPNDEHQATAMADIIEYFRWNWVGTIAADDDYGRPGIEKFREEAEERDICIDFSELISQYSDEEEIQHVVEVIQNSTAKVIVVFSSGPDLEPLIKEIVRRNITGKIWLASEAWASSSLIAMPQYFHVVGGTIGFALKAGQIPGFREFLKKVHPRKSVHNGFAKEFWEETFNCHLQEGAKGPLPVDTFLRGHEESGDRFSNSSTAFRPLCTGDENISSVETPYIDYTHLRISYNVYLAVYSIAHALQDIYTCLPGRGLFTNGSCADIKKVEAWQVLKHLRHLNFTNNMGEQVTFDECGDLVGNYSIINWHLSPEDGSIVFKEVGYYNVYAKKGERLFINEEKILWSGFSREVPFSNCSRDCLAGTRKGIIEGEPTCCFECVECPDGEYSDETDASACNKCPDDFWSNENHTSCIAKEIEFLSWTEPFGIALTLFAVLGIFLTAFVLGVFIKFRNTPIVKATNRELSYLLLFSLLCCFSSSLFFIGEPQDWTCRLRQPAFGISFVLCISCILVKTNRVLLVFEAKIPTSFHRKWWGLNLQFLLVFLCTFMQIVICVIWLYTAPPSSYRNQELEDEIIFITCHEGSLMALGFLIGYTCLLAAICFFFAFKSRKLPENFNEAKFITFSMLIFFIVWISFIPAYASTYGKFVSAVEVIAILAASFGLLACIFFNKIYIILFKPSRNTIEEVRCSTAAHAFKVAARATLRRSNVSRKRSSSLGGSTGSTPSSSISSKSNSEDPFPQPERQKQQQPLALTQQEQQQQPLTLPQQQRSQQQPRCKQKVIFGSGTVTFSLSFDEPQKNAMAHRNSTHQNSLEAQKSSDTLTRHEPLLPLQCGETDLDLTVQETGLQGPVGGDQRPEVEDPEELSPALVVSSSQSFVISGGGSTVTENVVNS
Put plainly: Calcium receptor activity in recombinant HEK 293 4.0-7 cells (fluorescence of dye-loaded cells). Type of test: cell-based. As to conditions: recombinant HEK 293 4.0-7 cells containing a calcium receptor; 1 mM CaCl2, 1 mM MgCl2; fluorescence 340/510 nm. The protocol:
Recombinant HEK 293 4.0-7 cells containing a calcium receptor were constructed as described by Rogers et al., J. Bone Miner. Res. 10 Suppl. 1:S483, 1995 (hereby incorporated by reference herein). The recombinant cells were loaded with fura-2 by incubating the cells in Dulbecco's modified Eagle's medium buffered with 20 mM HEPES containing about 5 μM […] for one hour at room temperature. Cells were then rinsed with Hank's balanced salt solution buffered with 20 mM HEPES containing 1 mM CaCl2 and 1 mM MgCl2. Compounds to be tested were then added to the cells and fluorescence was measured (excitation and emission wavelengths of 340 and 510 nm, respectively).
`C[C@@H](N[C@H](C)c1cccc2ccccc12)c1ccc(I)cc1` [Compound 26D, hydrochloride]: the half-maximal effective concentration (EC50) worked out at 47 nM.

As to `CCOc1ccc([C@@H](C)N[C@H](C)c2cccc3ccccc23)cc1C` [Compound 26E, hydrochloride], the concentration giving a half-maximal response (EC50) is 77 nM.

As to `CC[C@@H](N[C@H](C)c1cccc2ccccc12)c1ccc(OC)c(C)c1` [Compound 26F, hydrochloride], the concentration giving a half-maximal response (EC50) was 15 nM.

As to `C[C@@H](NCC=Cc1ccccc1)c1cccc2ccccc12` [Compound 26H, (R)-N-(3-phenyl-2-propenyl)-1-(1-naphthyl)ethylamine hydrochloride], the EC50 is 36 nM.

Regarding `CC(=Cc1ccccc1)CN[C@H](C)c1cccc2ccccc12` [Compound 26I, (R)-N-(2-methyl-3-phenyl-2-propenyl)-1-(1-naphthyl)ethylamine hydrochloride], the EC50 came out at 126 nM.

`COc1ccccc1C=CCN[C@H](C)c1cccc2ccccc12` [Compound 26J, hydrochloride]: the EC50 is 47 nM.

Regarding “(R,R)-N-(1-Ethyl-4′-methoxy-3′-bromophenyl)-1-(1-naphthyl)ethylamine hydrochloride [Compound 26G]”, the concentration giving a half-maximal response (EC50) turned out to be 11 nM.
